Reference: US20240116946A1 (Gilead Sciences, Inc., priority 2022, published 2024)
Like-named read-outs stand apart in the source and are kept apart here.

How the values were obtained:
SARS-CoV-2-NLuc = assay: microbe, parasite or virus in culture; assay type: cell-based, SARS Coronavirus 2
[1] = target: recombinant SARS-CoV-2 Main protease (Mpro) (Severe acute respiratory syndrome coronavirus 2 (2019-nCoV) (SARS-CoV-2), UniProt P0DTD1); assay: Cov Mpro Biochemical IC50 Assay; conditions: read-out: MPro IC50
[2] = Severe acute respiratory syndrome coronavirus, 48 h; read-out: MPro EC50
[3] = recombinant SARS-CoV-2 Mpro, fluorogenic peptide substrate
[4] = recombinant SARS-CoV-2 Mpro 7.5 nM, fluorogenic peptide substrate 40 μM
[5] = Severe acute respiratory syndrome coronavirus, 48 h, read-out: MPro EC50

O=c1[nH]c2cc(-c3ccccc3Cl)sc2c(=O)n1-c1cnccc1N1CCNCC1 [Example 115, 6-(2-chlorophenyl)-3-(4-(piperazin-1-yl)pyridin-3-yl)thieno[3,2-d]pyrimidine-2,4(1H,3H)-dione]
EC50 (SARS-CoV-2-NLuc; [2]): 1530 nM
IC50 [1, 3]: 522 nM

COc1cc(-c2cc3c(s2)c(=O)n(-c2cncc4nc(C(F)(F)F)n(C)c24)c(=O)n3CCC#N)c(Cl)cc1F (single isomer, unassigned) [Example 974, 3-(6-(2-chloro-4-fluoro-5-methoxyphenyl)-3-(1-methyl-2-(trifluoromethyl)-1H-imidazo[4,5-c]pyridin-7-yl)-2,4-dioxo-3,4-dihydrothieno[3,2-d]pyrimidin-1(2H)-yl)propanenitrile]
EC50 (SARS-CoV-2-NLuc; read-out: MPro EC50): 602 nM
IC50 [1, 4]: 242 nM

O=c1[nH]c2cc(-c3ccccc3Cl)sc2c(=O)n1-c1cncc2ccc(N3CC4C(C3)C4(F)F)cc12 (stereo not shown) [Example 231]
EC50 (SARS-CoV-2-NLuc; [5]): 37.4 nM
IC50 [1, 3]: 22.1 nM

COc1cc(-c2cc3c(s2)c(=O)n(-c2cncc4cnn(C)c24)c(=O)n3CC#N)c(Cl)cc1F (single isomer, unassigned) [Example 1013, 2-[6-(2-chloro-4-fluoro-5-methoxy-phenyl)-3-(1-methylpyrazolo[4,3-c]pyridin-7-yl)-2,4-dioxo-thieno[3,2-d]pyrimidin-1-yl]acetonitrile]
EC50 (SARS-CoV-2-NLuc; read-out: MPro EC50): 16.5 nM
IC50 [1, 4]: 1.42 nM

COc1cc(-c2cc3c(s2)c(=O)n(-c2cnccc2C(F)(F)F)c(=O)n3CCC#N)c(C#N)cc1F [Example 862]
EC50 (SARS-CoV-2-NLuc; [5]): 210 nM
IC50 [1, 4]: 95.3 nM

O=c1[nH]c2c(F)c(-c3ccccc3Cl)ccc2c(=O)n1-c1cncc2ccccc12 [Example 82]
EC50 (SARS-CoV-2-NLuc; [5]): 2860 nM
IC50 [1, 3]: 1370 nM

O=c1[nH]c2cc(-c3c(Cl)cccc3-c3ccnnc3)sc2c(=O)n1-c1cncc2ccccc12 [Example 112]
EC50 (SARS-CoV-2-NLuc; [5]): 39.2 nM
IC50 [1, 3]: 5.19 nM

COc1ccc(C#N)c(-c2cc3[nH]c(=O)n(-c4cncc5ccc(N6CCOCC6)cc45)c(=O)c3cc2F)c1 [Example 435]
EC50 (SARS-CoV-2-NLuc; [5]): 37.4 nM
IC50 [1, 4]: 6.97 nM

Cc1nocc1-c1cccc(Cl)c1-c1ccc2c(=O)n(-c3cncc4ccccc34)c(=O)[nH]c2c1 [Example 259]
EC50 (SARS-CoV-2-NLuc; [5]): 113 nM
IC50 [1, 3]: 189 nM

COc1ccc(Cl)c(-c2cc3[nH]c(=O)n(-c4cncc5c4ccn5C)c(=O)c3s2)c1 [Example 489]
EC50 (SARS-CoV-2-NLuc; [5]): 20.4 nM
IC50 [1, 4]: 2.63 nM

COc1cccc(Cl)c1-c1cc2[nH]c(=O)n(-c3cncc4ccccc34)c(=O)c2s1 [Example 19]
EC50 (SARS-CoV-2-NLuc; [5]): 59.6 nM
IC50 [1, 3]: 29.5 nM

COc1cc(-c2cc3c(s2)c(=O)n(-c2cccnc2)c(=O)n3CCC#N)c(Cl)cc1F [Example 982]
EC50 (SARS-CoV-2-NLuc; [5]): 7.89 nM
IC50 [1, 4]: 4.12 nM

COc1ccc(C#N)c(-c2cc3[nH]c(=O)n(-c4cncc5ccc(N6CCOCC6)cc45)c(=O)c3s2)c1 [Example 433]
EC50 (SARS-CoV-2-NLuc; [5]): 69.5 nM
IC50 [1, 4]: 7.8 nM

CCn1c(C)nc2cncc(-n3c(=O)c4sc(-c5cc(OC)c(F)cc5Cl)cc4n(CCC#N)c3=O)c21 [Example 940]
EC50 (SARS-CoV-2-NLuc; [5]): 23.6 nM
IC50 [1, 4]: 5.28 nM

Cc1ccc(C#N)cc1-c1cc2[nH]c(=O)n(-c3cncc4ccccc34)c(=O)c2s1 [Example 546]
EC50 (SARS-CoV-2-NLuc; [5]): 164 nM
IC50 [1, 4]: 15.4 nM

O=C1NCc2cc(-c3cccc(Cl)c3-c3ccc4c(=O)n(-c5cncc6ccccc56)c(=O)[nH]c4c3)ccc21 [Example 360]
EC50 (SARS-CoV-2-NLuc; [5]): 42.1 nM
IC50 [1, 3]: 19.4 nM

COc1ccc(Cl)c(-c2ccc3c(=O)n(-c4cncc(C5CC5)c4)c(=O)[nH]c3c2)c1 [Example 191]
EC50 (SARS-CoV-2-NLuc; [5]): 91 nM
IC50 [1, 3]: 73.8 nM

COc1ccc(Cl)c(-c2cc3[nH]c(=O)n(-c4cncc5cccc(C)c45)c(=O)c3s2)c1 [Example 559]
EC50 (SARS-CoV-2-NLuc; [5]): 9.19 nM
IC50 [1, 4]: 6.23 nM

COc1cc(-c2cc3[nH]c(=O)n(-c4cncc(C)c4C)c(=O)c3s2)c(Cl)cc1F [Example 747]
EC50 (SARS-CoV-2-NLuc; [5]): 4.19 nM
IC50 [1, 4]: 4.63 nM

COc1cc(-c2cc3c(s2)c(=O)n(-c2cncc4ccn(C)c(=O)c24)c(=O)n3CC#N)c(Cl)cc1F [Example 696]
EC50 (SARS-CoV-2-NLuc; [5]): 29.2 nM
IC50 [1, 4]: 3.15 nM

Cc1nn(C2COC2)c(C)c1-c1cccc(Cl)c1-c1ccc2c(=O)n(-c3cncc4ccccc34)c(=O)[nH]c2c1 [Example 321]
EC50 (SARS-CoV-2-NLuc; [5]): 25.1 nM
IC50 [1, 3]: 8.28 nM

COc1ccc(Cl)c(-c2ccc3c(=O)n(-c4cncc5ccc(N6CC7(COCCO7)C6)cc45)c(=O)[nH]c3c2)c1 [Example 412]
EC50 (SARS-CoV-2-NLuc; [2]): 38.3 nM
IC50 [1, 4]: 10.8 nM

O=c1[nH]c2cc(-c3ccccc3Cl)sc2c(=O)n1-c1cncc2sccc12 [Example 336]
EC50 (SARS-CoV-2-NLuc; [5]): 7.02 nM
IC50 [1, 3]: 4.68 nM

COc1cnc(Cl)c(-c2cc3c(s2)c(=O)n(-c2cncc4ccccc24)c(=O)n3CCC#N)c1 (single isomer, unassigned) [Example 1089, 3-(6-(2-chloro-5-methoxypyridin-3-yl)-3-(isoquinolin-4-yl)-2,4-dioxo-3,4-dihydrothieno[3,2-d]pyrimidin-1(2H)-yl)propanenitrile]
EC50 (SARS-CoV-2-NLuc; read-out: MPro EC50): > 1000 nM
IC50 [1, 4]: > 1000 nM

Cc1cn(C)nc1-c1cccc(Cl)c1-c1ccc2c(=O)n(-c3cncc4ccccc34)c(=O)[nH]c2c1 [Example 258]
EC50 (SARS-CoV-2-NLuc; [5]): 75.9 nM
IC50 [1, 3]: 61.3 nM

COc1ccc(Cl)c(-c2cc3[nH]c(=O)n(-c4cncc(CC(=O)N5CCOCC5)c4)c(=O)c3s2)c1 [Example 612]
EC50 (SARS-CoV-2-NLuc; [5]): > 1000 nM
IC50 [1, 4]: 12.2 nM

N#CCCn1c(=O)n(-c2cncc(N3CCOCC3)c2)c(=O)c2sc(-c3ccccc3C#N)cc21 [Example 817]
EC50 (SARS-CoV-2-NLuc; [2]): > 1000 nM
IC50 [1, 4]: > 1000 nM

O=c1[nH]c2cc(-c3ccccc3Cl)sc2c(=O)n1-c1cnccc1C1CC1 [Example 130, 6-(2-chlorophenyl)-3-(4-cyclopropylpyridin-3-yl)thieno[3,2-d]pyrimidine-2,4(1H,3H)-dione]
EC50 (SARS-CoV-2-NLuc; [5]): 147 nM
IC50 [1, 3]: 73.1 nM

COc1cc(-c2cc3c(s2)c(=O)n(-c2cncc4ccncc24)c(=O)n3CCC#N)c(Cl)cc1F (single isomer, unassigned) [Example 1098, 3-[6-(2-chloro-4-fluoro-5-methoxy-phenyl)-3-(2,6-naphthyridin-4-yl)-2,4-dioxo-thieno[3,2-d]pyrimidin-1-yl]propanenitrile]
EC50 (SARS-CoV-2-NLuc; read-out: MPro EC50): 1.91 nM
IC50 [1, 4]: 3.81 nM

COc1ccc(Cl)c(-c2ccc3c(=O)n(-c4cncc5ccc(OC)cc45)c(=O)[nH]c3c2)c1 [Example 238]
EC50 (SARS-CoV-2-NLuc; [2]): 54.5 nM
IC50 [1, 3]: 48 nM

COc1ncc(-c2cccc(Cl)c2-c2ccc3c(=O)n(-c4cncc5ccccc45)c(=O)[nH]c3c2)cc1C#N [Example 186]
EC50 (SARS-CoV-2-NLuc; [5]): 50.7 nM
IC50 [1, 3]: 112 nM

N#Cc1cncc(-c2cccc(Cl)c2-c2ccc3c(=O)n(-c4cncc5ccccc45)c(=O)[nH]c3c2)c1 [Example 298]
EC50 (SARS-CoV-2-NLuc; [5]): 10.8 nM
IC50 [1, 3]: 6.29 nM

COc1cc(-c2cc3c(s2)c(=O)n(-c2cncc4cnn(C)c24)c(=O)n3CC#N)c(Cl)cc1F [Example 641, 2-[6-(2-chloro-4-fluoro-5-methoxy-phenyl)-3-(1-methylpyrazolo[4,3-c]pyridin-7-yl)-2,4-dioxo-thieno[3,2-d]pyrimidin-1-yl]acetonitrile]
EC50 (SARS-CoV-2-NLuc; [2]): < 4.42 nM
IC50 [1, 4]: 2.2 nM

O=C(C1CC1)N1CCN(c2ccc3cncc(-n4c(=O)[nH]c5cc(-c6ccccc6Cl)sc5c4=O)c3c2)CC1 [Example 423]
EC50 (SARS-CoV-2-NLuc; [5]): 53.7 nM
IC50 [1, 4]: 6.5 nM

O=c1[nH]c2cc(-c3ccsc3Cl)ccc2c(=O)n1-c1cncc2ccccc12 [Example 84]
EC50 (SARS-CoV-2-NLuc; [5]): 1030 nM
IC50 [1, 3]: 604 nM
